Test results taken from ChEMBL document CHEMBL2346578, “Substituted 1,6-diphenylnaphthalenes as FtsZ-targeting antibacterial agents” (2013).
Values after ≈ are worked out from the molar mass of the structure shown. Active and inactive are the calls of the source. The rule behind the calls is not given here.

Columns and labels:
Staphylococcus aureus [1] = test: microbe, parasite or virus in culture; type: functional; conditions: ATCC 33591
Description: Antibacterial activity against methicillin-resistant Staphylococcus aureus ATCC 33591 assessed as growth inhibition by CLSI broth microdilution method

Enterococcus faecalis [2] = test: Antibacterial activity against vancomycin-resistant Enterococcus faecalis ATCC 51575 assessed as growth inhibition by CLSI broth microdilution method; type: functional
Enterococcus faecalis [3] = test: microbe, parasite or virus in culture; type: functional; conditions: ATCC 19433
Description: Antibacterial activity against vancomycin-sensitive Enterococcus faecalis ATCC 19433 assessed as growth inhibition by CLSI broth microdilution method

Staphylococcus aureus [4] = test: Antibacterial activity against methicillin-sensitive Staphylococcus aureus 8325-4 assessed as growth inhibition by CLSI broth microdilution method; type: functional
[5] = biological target: Tubulin beta chain (Sus scrofa) (UniProt P02554); test: Inhibition of porcine MAP-rich beta-tubulin polymerization at 10 ug/mL by light scattering assay
Tubulin beta chain (Sus scrofa), sequence (P02554 whole entry): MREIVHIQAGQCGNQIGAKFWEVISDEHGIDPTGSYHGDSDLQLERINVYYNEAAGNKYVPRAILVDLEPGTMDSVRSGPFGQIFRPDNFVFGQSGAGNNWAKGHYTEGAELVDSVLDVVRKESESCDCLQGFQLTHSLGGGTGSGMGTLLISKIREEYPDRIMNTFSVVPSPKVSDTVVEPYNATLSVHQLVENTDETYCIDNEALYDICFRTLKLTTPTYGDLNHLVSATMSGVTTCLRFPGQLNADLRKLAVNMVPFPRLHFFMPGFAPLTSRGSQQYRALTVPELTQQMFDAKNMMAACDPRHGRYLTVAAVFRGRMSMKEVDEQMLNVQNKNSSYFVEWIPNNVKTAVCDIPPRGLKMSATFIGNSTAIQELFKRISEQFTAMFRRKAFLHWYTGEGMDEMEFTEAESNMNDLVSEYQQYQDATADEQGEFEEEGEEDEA

[6] = biological target: Tubulin beta chain (Sus scrofa) (UniProt P02554); test: Stimulation of porcine MAP-rich beta-tubulin polymerization at 40 ug/mL by light scattering assay
[7] = biological target: T1, Cell division protein FtsZ (Staphylococcus aureus) (UniProt P0A031); test: Stimulation of Staphylococcus aureus ATCC 33591 FtsZ self-polymerization expressed in Escherichia coli BL21 (DE3) at 40 ug/mL by light scattering assay
T1 sequence (whole entry): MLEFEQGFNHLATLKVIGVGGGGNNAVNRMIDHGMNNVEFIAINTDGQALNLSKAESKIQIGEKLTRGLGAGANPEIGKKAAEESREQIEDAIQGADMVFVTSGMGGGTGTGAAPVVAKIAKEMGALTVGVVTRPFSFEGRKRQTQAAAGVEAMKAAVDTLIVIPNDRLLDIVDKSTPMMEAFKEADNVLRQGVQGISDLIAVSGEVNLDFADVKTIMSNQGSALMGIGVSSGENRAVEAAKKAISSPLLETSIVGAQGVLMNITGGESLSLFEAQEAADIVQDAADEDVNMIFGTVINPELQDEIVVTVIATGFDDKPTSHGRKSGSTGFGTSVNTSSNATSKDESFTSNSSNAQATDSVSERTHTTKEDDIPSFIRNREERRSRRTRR

[8] = biological target: Tubulin beta chain (Sus scrofa) (UniProt P02554); test: Stimulation of porcine MAP-rich beta-tubulin polymerization at 25 ug/mL by light scattering assay

SMILES | MIC90 (Staphylococcus aureus [1]) [µg/mL] | MIC90 (Enterococcus faecalis [2]) [µg/mL] | MIC90 (Enterococcus faecalis [3]) [µg/mL] | MIC90 (Staphylococcus aureus [4]) [µg/mL] | inhibition [5] | Activity [6] | Activity [7] | Activity [8]
CNCc1ccccc1-c1ccc2c(-c3ccc(C(C)(C)C)cc3)cccc2c1 | 2 (≈ 5.27 µM) | 2 (≈ 5.27 µM) | 2 (≈ 5.27 µM) | 2 (≈ 5.27 µM) |  |  |  | 
CCC[C@@H]1C[C@@H](C(=O)N[C@@H]([C@H]2O[C@H](SC)[C@H](O)[C@@H](O)[C@H]2O)[C@H](C)Cl)N(C)C1 [CLINDAMYCIN] | > 64 | > 64 | 2 (≈ 4.71 µM) | 0.031 (≈ 0.0729 µM) |  |  |  | 
COc1ccc2c(c[n+](C)c3c4cc5c(cc4ccc23)OCO5)c1OC [CHELERYTHRINE] | 4 | 32 | 32 | 4 |  |  |  | 
C[N+](C)(C)c1ccc(-c2ccc3c(-c4ccc(-c5ccccc5)cc4)cccc3c2)cc1.[I-] | 1 | 2 | 2 | 1 |  |  |  | 
C[N+](C)(C)c1cccc(-c2ccc3c(-c4ccc(-c5ccccc5)cc4)cccc3c2)c1.[I-] | 1 | 4 | 2 | 0.5 |  |  |  | 
C[N+](C)(C)c1ccc(-c2ccc3c(-c4ccc(F)cc4)cccc3c2)cc1.[I-] | 4 | 4 | 4 | 4 |  |  |  | 
CC(C)(C)c1ccc(-c2cccc3cc(-c4cccc([N+](C)(C)C)c4)ccc23)cc1.[I-] | 1 | 2 | 2 | 0.5 |  |  |  | 
COC(=O)Nc1nc2cc(C(=O)c3cccs3)ccc2[nH]1 |  |  |  |  | Active |  |  | 
C[N+](C)(C)c1ccc(-c2ccc3c(-c4cccc(-c5ccccc5)c4)cccc3c2)cc1.[I-] | 1 | 2 | 2 | 1 |  |  |  | 
CC(C)(C)c1ccc(-c2cccc3cc(-c4ccccc4C[N+](C)(C)C)ccc23)cc1.[I-] | 0.5 | 4 | 4 | 0.5 |  | inactive | Active | 
NCc1cccc(-c2ccc3c(-c4cccc(-c5ccccc5)c4)cccc3c2)c1 | 4 (≈ 10.4 µM) | 8 (≈ 20.8 µM) | 4 (≈ 10.4 µM) | 2 (≈ 5.19 µM) |  |  |  | 
CN(C)[C@@H]1C(O)=C(C(N)=O)C(=O)[C@@]2(O)C(O)=C3C(=O)c4c(O)cccc4[C@@](C)(O)[C@H]3C[C@@H]12 [TETRACYCLINE] | 64 (≈ 144 µM) | > 64 | 0.5 (≈ 1.13 µM) | 0.063 (≈ 0.142 µM) |  |  |  | 
CN(C)Cc1ccccc1-c1ccc2c(-c3ccc(C(C)(C)C)cc3)cccc2c1 | > 64 | > 64 | > 64 | 32 (≈ 81.3 µM) |  |  |  | 
CNCc1cc(C(=O)OC)ccc1-c1ccc2c(-c3ccc(C(C)(C)C)cc3)cccc2c1 | 4 (≈ 9.14 µM) | 4 (≈ 9.14 µM) | 8 (≈ 18.3 µM) | 4 (≈ 9.14 µM) |  |  |  | 
CC(C)(C)c1ccc(-c2cccc3cc(-c4ccc(C(=O)O)cc4CN)ccc23)cc1 | > 64 | > 64 | > 64 | > 64 |  |  |  | 
COC(=O)c1ccc(-c2ccc3c(-c4ccc(C(C)(C)C)cc4)cccc3c2)c(CN(C)C)c1 | > 64 | > 64 | > 64 | > 64 |  |  |  | 
COC(=O)c1ccc(-c2ccc3c(-c4ccc(C(C)(C)C)cc4)cccc3c2)c(C[N+](C)(C)C)c1.[I-] | 2 | 8 | 4 | 1 |  |  |  | 
CN(C)Cc1cccc(-c2ccc3c(-c4cccc(-c5ccccc5)c4)cccc3c2)c1 | 8 (≈ 19.3 µM) | 16 (≈ 38.7 µM) | 16 (≈ 38.7 µM) | 4 (≈ 9.67 µM) |  |  |  | 

SMILES | MIC90 (Staphylococcus aureus [1]) [µg/mL] | MIC90 (Enterococcus faecalis [2]) [µg/mL] | MIC90 (Enterococcus faecalis [3]) [µg/mL] | MIC90 (Staphylococcus aureus [4]) [µg/mL] | inhibition [5] | Activity [6] | Activity [7] | Activity [8]
CC(=O)O[C@H]1C(=O)[C@@]2(C)[C@H]([C@H](OC(=O)c3ccccc3)[C@]3(O)C[C@H](OC(=O)[C@H](O)[C@@H](NC(=O)c4ccccc4)c4ccccc4)C(C)=C1C3(C)C)[C@]1(OC(C)=O)CO[C@@H]1C[C@@H]2O |  |  |  |  |  |  |  | Active
CC(C)(C)c1ccc(-c2cccc3cc(-c4ccccc4N)ccc23)cc1 | > 64 | > 64 | > 64 | > 64 |  |  |  | 
CC(C)(C)c1ccc(-c2cccc3cc(-c4ccccc4CN=C(N)N)ccc23)cc1 | 1 (≈ 2.45 µM) | 2 (≈ 4.91 µM) | 2 (≈ 4.91 µM) | 1 (≈ 2.45 µM) |  |  |  | 
CN[C@H](CC(C)C)C(=O)N[C@H]1C(=O)N[C@@H](CC(N)=O)C(=O)N[C@H]2C(=O)N[C@H]3C(=O)N[C@H](C(=O)N[C@H](C(=O)O)c4cc(O)cc(O)c4-c4cc3ccc4O)[C@H](O)c3ccc(c(Cl)c3)Oc3cc2cc(c3O[C@@H]2O[C@H](CO)[C@@H](O)[C@H](O)[C@H]2O[C@H]2C[C@](C)(N)[C@H](O)[C@H](C)O2)Oc2ccc(cc2Cl)[C@H]1O [VANCOMYCIN] | 2 (≈ 1.38 µM) | > 64 | 1 (≈ 0.69 µM) | 1 (≈ 0.69 µM) |  |  | inactive | 
C[N+](C)(C)c1cccc(-c2ccc3c(-c4ccc(F)cc4)cccc3c2)c1.[I-] | 4 | 8 | 8 | 1 |  |  |  | 
COC(=O)c1ccc(-c2ccc3c(-c4ccc(C(C)(C)C)cc4)cccc3c2)c(CN)c1 | 2 (≈ 4.72 µM) | 16 (≈ 37.8 µM) | 16 (≈ 37.8 µM) | 2 (≈ 4.72 µM) |  |  |  | 
Cc1onc(-c2ccccc2)c1C(=O)N[C@@H]1C(=O)N2[C@@H]1SC(C)(C)[C@@H]2C(=O)O [OXACILLIN] | > 64 | > 64 | 8 (≈ 19.9 µM) | 0.063 (≈ 0.157 µM) |  |  |  | 
C[N+](C)(C)Cc1cccc(-c2ccc3c(-c4cccc(-c5ccccc5)c4)cccc3c2)c1.[I-] | 1 | 4 | 4 | 0.5 |  |  |  | 
CC(C)(C)c1ccc(-c2cccc3cc(-c4cccc(N)c4)ccc23)cc1 | > 64 | > 64 | > 64 | > 64 |  |  |  | 
CC(C)(C)c1ccc(-c2cccc3cc(-c4ccc([N+](C)(C)C)cc4)ccc23)cc1.[I-] | 2 | 4 | 4 | 1 |  |  |  | 
C[N+](C)(C)c1cccc(-c2ccc3c(-c4cccc(-c5ccccc5)c4)cccc3c2)c1.[I-] | 1 | 2 | 2 | 1 |  |  |  | 
COC(=O)c1ccc(-c2ccc3c(-c4ccc(C(C)(C)C)cc4)cccc3c2)c(CN=C(N)N)c1 | 1 (≈ 2.15 µM) | 4 (≈ 8.59 µM) | 2 (≈ 4.3 µM) | 1 (≈ 2.15 µM) |  |  |  | 
C[n+]1cc2c3c(ccc2c2ccc4cc5c(cc4c21)OCO5)OCO3 [SANGUINARIUM] | 2 | 16 | 8 | 2 |  |  |  | 
C[N+](C)(C)c1cccc(-c2ccc3c(-c4ccc(C(F)(F)F)cc4)cccc3c2)c1.[I-] | 4 | 8 | 8 | 1 |  |  |  | 
Cc1ccccc1-c1ccc2c(-c3ccc(C(C)(C)C)cc3)cccc2c1 | > 64 | > 64 | > 64 | > 64 |  |  |  | 
CC[C@H]1OC(=O)[C@H](C)[C@@H](O[C@H]2C[C@@](C)(OC)[C@@H](O)[C@H](C)O2)[C@H](C)[C@@H](O[C@@H]2O[C@H](C)C[C@H](N(C)C)[C@H]2O)[C@](C)(O)C[C@@H](C)C(=O)[C@H](C)[C@@H](O)[C@]1(C)O [ERYTHROMYCIN] | > 64 | > 64 | 1 (≈ 1.36 µM) | 0.13 (≈ 0.177 µM) |  |  |  | 
CC(C)(C)c1ccc(-c2cccc3cc(-c4ccccc4CCN)ccc23)cc1 | 2 (≈ 5.27 µM) | 4 (≈ 10.5 µM) | 4 (≈ 10.5 µM) | 2 (≈ 5.27 µM) |  |  | Active | 
